Assay results from PubChem BioAssay AID493102 (Broad Institute, 2011).

These molecules were tested on SK-MEL-5 TRPM1-promoter luciferase reporter, 24 h (assay: TRPM1 promoter luciferase signal decrease, dose response, MITF inhibitor project, cell-based, SK-MEL-5, cherry-picked, set 4 (AID 493102);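 note: actives lower the luciferase signal so the potency reflects inhibition of reporter expression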).
In the case of `CCOc1ccc(-c2noc(CCC(=O)O)n2)cc1`, the AC50 is reported as 2.61 µM.
With `COCCCn1[nH]c2c3c(ccc2c1=O)C(=O)c1ccccc1C3=O` the AC50 was 8.86 µM.
For `C#CC(=O)N(c1ccc(OC)cc1OC)C(C(=O)NC1CCCC1)c1cccs1` (stereo not drawn), the AC50 was 4.73 µM.
`O=C(CCl)N(Cc1cc(=O)[nH]c2ccccc12)c1ccccc1` showed an AC50 of 5.42 µM.
`CC(=O)Cn1ncc(Br)c(Br)c1=O` gave an AC50 of 15.8 µM.
`Nc1ccc(-c2cc3ccccc3c(=O)o2)cc1` was tested, and the AC50 was 0.293 µM.
Work on `O=C(CCl)N(c1ccccc1)C1CCCCC1` yielded an AC50 of 4.51 µM.
`Cc1ccc(NC(=O)Cn2ncc(Cl)c(Cl)c2=O)cc1S(=O)(=O)N1CCCCC1` was tested, and the AC50 was 13.7 µM.
In the case of `COCCn1c(C)cc(C(=O)CSc2nnc(C)s2)c1C`, the AC50 is reported as 3.04 µM.
In the case of `CCOc1ccc2nc(NC3=NC(c4ccc(OC)cc4)CC(=O)N3)nc(C)c2c1` (stereo not drawn), the AC50 is reported as 9.49 µM.
`Cc1cccc2sc(N(CCCN(C)C)C(=O)c3nc4ccccc4s3)nc12` gave an AC50 of 10.9 µM.
`COC1=C(c2ccccc2)C(=O)c2ccccc2C1=O` showed an AC50 of 9.05 µM.
With `C(#Cc1ccccc1)C[N+]1(CC#Cc2cccc3ccccc23)CCCC1` the AC50 was 6.21 µM.
